Assay results: the CheMixHub viscosity set

Assay: xn = mol fraction of the nth substance listed

Nc1cccc2ccccc12 + CCCCO
viscosity [mPa·s], 101 kPa
Details | x1 = 0.03572 | x1 = 0.06889 | x1 = 0.1289 | x1 = 0.1817 | x1 = 0.2285 | x1 = 0.2702 | x1 = 0.3076
293.15 K | 3.082 | 3.202 | 3.539 | 3.906 | 4.311 | 4.724 | 5.193
303.15 K | 2.355 | 2.427 | 2.641 | 2.879 | 3.134 | 3.39 | 3.681
313.15 K | 1.828 | 1.878 | 2.019 | 2.186 | 2.355 | 2.532 | 2.719
323.15 K | 1.456 | 1.494 | 1.596 | 1.718 | 1.839 | 1.965 | 2.097

CCC(=O)OC + c1ccccc1
viscosity [mPa·s]
Details | 298.15 K | 308.15 K | 313.15 K | 318.15 K
101 kPa, x2 = 0.1014 | 0.435 | – | 0.373 | –
101 kPa, x2 = 0.1972 | 0.444 | – | 0.38 | –
101 kPa, x2 = 0.3002 | 0.453 | – | 0.387 | –
101 kPa, x2 = 0.3996 | 0.466 | – | 0.397 | –
101 kPa, x2 = 0.5012 | 0.48 | – | 0.407 | –
101 kPa, x2 = 0.6036 | 0.496 | – | 0.419 | –
101 kPa, x2 = 0.6961 | 0.513 | – | 0.43 | –
101 kPa, x2 = 0.8009 | 0.536 | – | 0.447 | –
101 kPa, x2 = 0.898 | 0.561 | – | 0.465 | –
101.3 kPa, x1 = 0.0415 | – | 0.53 | – | 0.466
101.3 kPa, x1 = 0.1037 | – | 0.52 | – | 0.461
101.3 kPa, x1 = 0.2041 | – | 0.505 | – | 0.453
101.3 kPa, x1 = 0.3026 | – | 0.492 | – | 0.446
101.3 kPa, x1 = 0.4053 | – | 0.48 | – | 0.44
101.3 kPa, x1 = 0.4569 | – | 0.474 | – | 0.437
101.3 kPa, x1 = 0.6013 | – | 0.462 | – | 0.43
101.3 kPa, x1 = 0.7026 | – | 0.453 | – | 0.425
101.3 kPa, x1 = 0.8018 | – | 0.447 | – | 0.43
101.3 kPa, x1 = 0.9039 | – | 0.441 | – | 0.418
101.3 kPa, x1 = 0.9674 | – | 0.438 | – | 0.417

CC(=O)CCc1ccccc1 + CCCCCOC(C)=O
298.15 K, 101 kPa
Details | viscosity [mPa·s]
x1 = 0.0322 | 0.8102
x1 = 0.0702 | 0.8323

C[C@H]1CCCC[C@H]1O + C[C@@H]1CCCC[C@H]1O
viscosity [mPa·s], 101 kPa
Details | x1 = 0.199 | x1 = 0.302 | x1 = 0.399 | x1 = 0.598 | x1 = 0.691 | x1 = 0.798
298.15 K | 29.88 | 27.1 | 24.51 | 20.97 | 19.75 | 18.87
303.15 K | 20.72 | 19.03 | 17.37 | 15.25 | 14.51 | 13.97

CCCCn1cc[n+](C)c1.[Cl-] + CCO
viscosity [mPa·s], 101 kPa
Details | 293.15 K | 303.15 K | 308.15 K
x2 = 0.4991 | 75.1 | – | –
x2 = 0.7003 | – | 9.24 | 8.17

CCCCn1cc[n+](C)c1.[Cl-] + CO
101 kPa
Details | viscosity [mPa·s]
293.15 K, x2 = 0.5001 | 65.2
293.15 K, x2 = 0.7002 | 8.41
298.15 K, x2 = 0.7015 | 7.51
308.15 K, x2 = 0.7001 | 6.61

N#Cc1ccccc1 + COC(C)(C)C
viscosity [mPa·s], 101.33 kPa
Details | x2 = 0.1048 | x2 = 0.2024 | x2 = 0.3015 | x2 = 0.3969 | x2 = 0.4912 | x2 = 0.6055 | x2 = 0.7115 | x2 = 0.7995 | x2 = 0.905
293.15 K | 1.277 | 1.18 | 1.081 | 0.9863 | 0.8924 | 0.7787 | 0.6732 | 0.5856 | 0.4806
298.15 K | 1.185 | 1.096 | 1.006 | 0.9189 | 0.8329 | 0.7286 | 0.6319 | 0.5516 | 0.4554

NNc1ccccc1 + Oc1ccccc1Cl
323.1 K, 101 kPa
Details | viscosity [mPa·s]
x1 = 0.1706 | 3.51
x1 = 0.401 | 7.16
x1 = 0.508 | 8.27
x1 = 0.536 | 8.18
x1 = 0.781 | 6.955

N#Cc1ccccc1 + CCCCO
viscosity [mPa·s], 101.33 kPa
Details | x1 = 0.033 | x1 = 0.1519 | x1 = 0.2155 | x1 = 0.3392 | x1 = 0.4092 | x1 = 0.504 | x1 = 0.6218 | x1 = 0.7894 | x1 = 0.9629
303.15 K | 2.094 | 1.716 | 1.583 | 1.382 | 1.3 | 1.213 | 1.149 | 1.108 | 1.119
308.15 K | 1.844 | 1.534 | 1.414 | 1.245 | 1.186 | 1.108 | 1.053 | 1.021 | 1.04
313.15 K | 1.66 | 1.378 | 1.281 | 1.14 | 1.08 | 1.02 | 0.976 | 0.945 | 0.978

CCC(=O)OC + C1CCCCC1
viscosity [mPa·s], 101 kPa
Details | 298.15 K | 308.15 K
x1 = 0.0565 | 0.827 | 0.699
x1 = 0.1524 | 0.742 | 0.621
x1 = 0.2574 | 0.67 | 0.556
x1 = 0.3378 | 0.626 | 0.517
x1 = 0.4555 | 0.578 | 0.475
x1 = 0.4981 | 0.565 | 0.463
x1 = 0.5542 | 0.55 | 0.45
x1 = 0.6536 | 0.532 | 0.434
x1 = 0.7514 | 0.522 | 0.426
x1 = 0.8265 | 0.519 | 0.424
x1 = 0.9564 | 0.526 | 0.432

CCCOCCO + CCCCCO
298.15 K, 101.33 kPa
Details | viscosity [mPa·s]
x1 = 0.0215 | 3.463
x1 = 0.0339 | 3.418
x1 = 0.0569 | 3.355
x1 = 0.0878 | 3.254
x1 = 0.1148 | 3.179
x1 = 0.1461 | 3.103
x1 = 0.1776 | 3.025
x1 = 0.2194 | 2.928
x1 = 0.2669 | 2.847
x1 = 0.327 | 2.776
x1 = 0.3773 | 2.72
x1 = 0.4289 | 2.667
x1 = 0.4842 | 2.61
x1 = 0.4911 | 2.608
x1 = 0.5387 | 2.574
x1 = 0.5721 | 2.548
x1 = 0.61 | 2.524
x1 = 0.6569 | 2.493
x1 = 0.7066 | 2.458
x1 = 0.7368 | 2.441
x1 = 0.7698 | 2.426
x1 = 0.8114 | 2.404
x1 = 0.8483 | 2.389
x1 = 0.8888 | 2.374
x1 = 0.9244 | 2.363
x1 = 0.963 | 2.353
x2 = 0.0102 | 2.35

N#Cc1ccccc1 + CC(C)(C)O
viscosity [mPa·s], 101.33 kPa
Details | x1 = 0.0567 | x1 = 0.1542 | x1 = 0.2837 | x1 = 0.3997 | x1 = 0.4923 | x1 = 0.5993 | x1 = 0.7289 | x1 = 0.8283 | x1 = 0.8923
303.15 K | 2.895 | 2.017 | 1.578 | 1.365 | 1.262 | 1.203 | 1.142 | 1.121 | 1.114
308.15 K | 2.311 | 1.696 | 1.368 | 1.223 | 1.137 | 1.094 | 1.043 | 1.034 | 1.028
313.15 K | 1.811 | 1.429 | 1.187 | 1.072 | 1.021 | 1.001 | 0.98 | 0.962 | 0.951
